Results on eight compounds are retold here after paper PMC9028889 (Pharmaceuticals, 2022).

Series [1] has as its system MCF10A cells. As to the kind of experiment: clonogenic survival / colony formation assay, MCF10A. The series is classed as cell-based, human. The conditions noted are these: for EC50: MCF-10A, clonogenic survival assay, human normal immortalized mammary epithelial cell line; for colony formation: MCF10A, 0, 1, 5, and 10 μM, 2 weeks. As for the experimental part: (§1) MCF10A, T47D, and MB231 cells (5 × 10^3) were seeded in 24-well plates, and cells were exposed to different CMC conjugates at different concentrations (0, 1, 5, and 10 μM) for 2 weeks, changing the medium for every 3 days with respective CMC conjugates at the indicated concentrations. After 2 weeks, cells were washed with PBS and fixed in 100% methanol for 30 min followed by staining with KaryoMax Giemsa stain for 1 h. The unfound dyes were removed by washing the wells with water and dried overnight at room temperature. Finally, cells were lysed with lysis buffer (1% SDS in 0.2 N NaOH) for 5 min, and the absorbance of the released dye was measured at 630 nm, as described before. Values are shown as mean ± SD of three experiments with 3 wells in each, for a total of 9 repeats.

The test system of series [2] is T47D cells. The series can be described thus: clonogenic survival / colony formation assay, T47D. The following applies: for EC50: Homo sapiens, T47D, clonogenic survival assay, ER+ BC cell line; for colony formation: T47D, 0, 1, 5, and 10 μM, 2 weeks. It counts as cell-based, human. As for the experimental part: as §1
In series [3] the test system is MB231 cells. As to the kind of experiment: clonogenic survival / colony formation assay, MB231. The series is classed as cell-based, human. The following applies: for EC50: Homo sapiens, clonogenic survival assay, TNBC cell line; for colony formation: MB231, 0, 1, 5, and 10 μM, 2 weeks. As for the experimental part: as §1
The subject of the next series is normal C57BL/6 mice. As to the kind of experiment: toxicity study in normal C57BL/6 mice. It counts as in vivo. The following applies: 50 and 100 mg/kg body, oral gavage daily for 7 days; for morphology (kidney, liver, lung): H&E. The procedure: We tested whether the synthesized conjugates are free of toxicity and safer to use in human normal cells and animal models. We treated human normal immortalized cell line (MCF10A) and normal C57BL/6 mice at different concentrations and time points.
Administration of CMC compounds to the mice: For toxicity studies, CMC1 and CMC2 conjugates at two different concentrations (50 and 100 mg/kg body) were given oral gavage daily for 7 days. At the end of the experiment, animals were euthanized, kidneys, liver, and lungs were analyzed for morphological changes. We also collected blood samples to measure Creatinine using a Creatinine assay kit (obtained from Millipore Sigma, Burlington, MA, USA, Catalog # MAK080), Alanine aminotransferase (ALT), using an ALT assay kit (obtained from the Millipore Sigma, Catalog #MAK053), Aspartate aminotransferase (AST), using an AST assay kit obtained from Millipore Sigma, Catalog #MAK055), and blood urea and nitrogen (BUN), using a urea nitrogen assay kit (obtained from ThermoFisher Scientific, Waltham, MA, USA, Catalog #EIABUN) as per the manufacturer’s instruction.

In another series the test system is MMTV–PyMT–Tg mice. As to the kind of experiment: spontaneous mouse mammary tumor model. The series is classed as in vivo. The conditions noted are these: 10 mg/kg body, three times a week by oral gavage for 7 weeks. As for the experimental part:
We chose MMTV–PyMT–Tg mouse mainly because the tumor formation and progression in this mouse is characterized by four different stages (hyperplasia, adenoma/mammary intra-epithelial neoplasia, early and late carcinoma) and also mimics human BC; the tumor develops first as ER-positive (ER^+) but ultimately becomes ER-negative BC (ER^− BC). We randomly assigned 6-week-old MMTV–PyMT–Tg mice into two groups (6 mice in each); one control and one CMC2 treated (10 mg/kg body, three times a week by oral gavage for 7 weeks). We measured the tumor volume twice a week. Tumor volume was calculated using the formula V = L × W^2/2, where L represents the largest tumor diameter, and W represents the smallest tumor diameter. Mice were euthanized after seven weeks of treatment, and tumor tissues were collected. The total tumor weight was measured. Tumor tissue sections were prepared and stained with Hematoxylin and Eosin (H&E) for morphometric analysis and Ki67 for cell proliferation analysis.
Similarly, six-week-old MMTV–PyMT–Tg mice were grouped into two groups—one control and one CMC2 treatment. The control mice received PBS, and the CMC2-treated group received CMC2 conjugate (10 mg/kg body by oral gavage, three times a week) for 7 weeks. We monitored animal weight and measured the tumor volume twice a week. At the end of the experimental period, mice were euthanized, and tumor tissues were harvested and measured for tumor weight. Tumor tissues were processed to extract RNA and protein and fixed in 10% buffered formalin phosphate solution (obtained from Fisher Scientific, Catalog #SF100-4) for morphological analysis.

For series [4], the system named is MCF10A cells. The series can be described thus: MTT cell proliferation assay, MCF10A. The conditions noted are these: MCF10A, 0, 1, 5, and 10 μM, 72 h. It counts as cell-based, human. The procedure: (§2) MCF10A, T47D, and MB231 cells (5 × 10^3) were seeded in 96-well plates and incubator at 37 °C with 5% CO2 in MEGM, DMEM, and RPMI medium (100 μL), respectively. After 24 h, the medium was replaced with the CMC conjugates at different concentrations (0, 1, 5, and 10 μM) for 72 h. After 72 h, 10 μL MTT reagent was added to each well and incubated for 2 h for the formation of purple formazan and then added 100 μL detergent to dissociate the formazan precipitate and measured at 570 nm. Values are shown as mean ± SD of three experiments with 3 wells in each, a total of 9 repeats.

The subject of series [5] is T47D cells. As to the kind of experiment: MTT cell proliferation assay, T47D. It counts as cell-based, human. The following applies: T47D, 0, 1, 5, and 10 μM, 72 h. The procedure: as §2
Series [6] has as its system MB231 cells. The series can be described thus: MTT cell proliferation assay, MB231. The conditions noted are these: MB231, 0, 1, 5, and 10 μM, 72 h. The series is classed as cell-based, human. The procedure: as §2
For orientation: Formazan colour is commonly taken as a measure of viable cells.

SMILES strings stand for the structures.

Consider `COc1cc(/C=C/C(=O)/C=C(O)/C=C/c2ccc(OC(=O)[C@H](Cc3ccccc3)NC(=O)C(Cl)Cl)c(OC)c2)ccc1OC(=O)[C@H](Cc1ccccc1)NC(=O)C(Cl)Cl` [CMC5, ((1E,3Z,6E)-3-Hydroxy-5-oxohepta-1,3,6-triene-1,7-diyl)bis(2-methoxy-4,1-phenylene) (2S,2’S)-bis(2-(2,2-dichloroacetamido)-3-phenylpropanoate)], for which the EC50 in the series with MCF10A cells [1] was 9600 nM; with T47D cells [2] it was 1240 nM; in the series on MB231 cells [3], 838 nM.
The compound `COc1cc(/C=C/C(=O)/C=C(O)/C=C/c2ccc(OC(=O)CNC(=O)C(Cl)Cl)c(OC)c2)ccc1OC(=O)CNC(=O)C(Cl)Cl` [CMC2, ((1E,3Z,6E)-3-Hydroxy-5-oxohepta-1,3,6-triene-1,7-diyl)bis(2-methoxy-4,1-phenylene) bis(2-(2,2-dichloroacetamido)acetate)] had an EC50 in the series with MCF10A cells [1] of 9680 nM. In the series with T47D cells [2], this compound returned an EC50 of 1420 nM. Also, the EC50 in the series on MB231 cells [3] came to 778 nM. Moreover, in the series with normal C57BL/6 mice, the body weight entry is reported as “no changes”; the “kidney functions (serum creatinine and blood urea and nitrogen)” value is on record as “no changes”; the “liver functions (ALT and AST)” value is “no changes”; the “morphology (kidney, liver, lung)” value is on record as “no changes”. Also, in the series with MMTV–PyMT–Tg mice, the lung nodules entry was “reducing”; the “normal body weight and organ histology” value is “without affecting”; the overall survival rate entry was “increased”; the “tumor cell proliferation (Ki67) in mammary and lung tumor tissue” value is “inhibiting”. Further, the tumor growth entry in the series with MMTV–PyMT–Tg mice was “significantly reduced”.
With `O=C(O)C(Cl)Cl` [DCA, Dichloroacetate, reference compound], the colony formation result in the series on MCF10A cells [1] is “not”; in the series on T47D cells [2] it was “inhibited”; with MB231 cells [3], “inhibited”. Besides, the “cell viability / proliferation (MTT)” value in the series with MCF10A cells [4] is “not”; with T47D cells [5] it was “inhibited”; with MB231 cells [6], “inhibited”.
As for `COc1cc(/C=C/C(=O)/C=C(O)/C=C/c2ccc(OC(=O)[C@H](C)NC(=O)C(Cl)Cl)c(OC)c2)ccc1OC(=O)[C@H](C)NC(=O)C(Cl)Cl` [CMC3, ((1E,3Z,6E)-3-Hydroxy-5-oxohepta-1,3,6-triene-1,7-diyl)bis(2-methoxy-4,1-phenylene) (2S,2’S)-bis(2-(2,2-dichloroacetamido)propanoate)], the EC50 worked out at 9710 nM in the series with MCF10A cells [1], 1600 nM in the series with T47D cells [2] and 518 nM in the series on MB231 cells [3].
The compound `COc1cc(/C=C/C(=O)/C=C(O)/C=C/c2ccc(OC(=O)CCNC(=O)C(Cl)Cl)c(OC)c2)ccc1OC(=O)CCNC(=O)C(Cl)Cl` [CMC4, ((1E,3Z,6E)-3-Hydroxy-5-oxohepta-1,3,6-triene-1,7-diyl)bis(2-methoxy-4,1-phenylene) bis(3-(2,2-dichloroacetamido)propanoate)] had a melting point of 140 to 142 °C. Further, a half-maximal effect with MCF10A cells [1] (EC50) was put at 8860 nM. In the series with T47D cells [2], this compound returned an EC50 of 1260 nM. This compound also displayed an EC50 in the series with MB231 cells [3] of 1130 nM.
In the case of `COc1cc(/C=C/C(=O)/C=C(O)/C=C/c2ccc(OC(=O)C(Cl)Cl)c(OC)c2)ccc1OC(=O)C(Cl)Cl` [CMC1, ((1E,3Z,6E)-3-Hydroxy-5-oxohepta-1,3,6-triene-1,7-diyl)bis(2-methoxy-4,1-phenylene) bis(2,2-dichloroacetate)], in the series on MCF10A cells [1], the EC50 was 8980 nM. Further, in the series on T47D cells [2], the EC50 was found to be 1650 nM. Besides, the EC50 with MB231 cells [3] stood at 424 nM. In addition, in the series with normal C57BL/6 mice, the body weight result is given as “no changes”; the “kidney functions (serum creatinine and blood urea and nitrogen)” value is “no changes”; the “liver functions (ALT and AST)” value is “no changes”; the “morphology (kidney, liver, lung)” value is recorded as “no changes”.
On to `COc1cc(/C=C/C(=O)/C=C(O)/C=C/c2ccc(OC(=O)CCCNC(=O)C(Cl)Cl)c(OC)c2)ccc1OC(=O)CCCNC(=O)C(Cl)Cl` [CMC6, ((1E,3Z,6E)-3-Hydroxy-5-oxohepta-1,3,6-triene-1,7-diyl)bis(2-methoxy-4,1-phenylene) bis(4-(2,2-dichloroacetamido)butanoate)], for which the melting point fell in the range of 130 to 132 °C. This compound registered an EC50 in the series on MCF10A cells [1] of 9470 nM. In addition, the concentration for a half-maximal effect (EC50) in the series on T47D cells [2] was 1370 nM. This compound also gave an EC50 with MB231 cells [3] of 942 nM.
On to `COc1cc(/C=C/C(=O)CC(=O)/C=C/c2ccc(O)c(OC)c2)ccc1O` [CUR, Curcumin, reference compound], for which the colony formation result is “not” with MCF10A cells [1], “inhibited” in the series on T47D cells [2] and “inhibited” with MB231 cells [3]. Further, the figures for the “cell viability / proliferation (MTT)” value in the series on MCF10A cells [4], in the series with T47D cells [5] and in the series on MB231 cells [6] were “not”, “inhibited” and “inhibited”, respectively.

Usually EC50 stands for the concentration that produces a half-maximal response. A lower EC50 goes with an effect from little substance. As usually defined, the melting point is the temperature of the solid-liquid transition.
